Source: patent US10526579B2, “Podocyte cultures and uses thereof” (RUSH UNIVERSITY MEDICAL CENTER, priority 2013, dated 2020)

What was measured:
cultured podocytes [1] = experiment: High-content F-actin stress fiber assay in cultured differentiated podocytes (phalloidin stain); type: cell-based, murine; details: 48 h at 37° C., 96-well plates
Experimental: (§1) A dose-response curve showing the effects of increasing concentration of podocyte injuring drug puromycin aminonucleoside (PAN) on various cellular parameters, including the intensity and the number of actin fibers, in cultured podocytes. Differentiated podocytes were cultured in 96-well multiwell plates. Cells were either kept in normal cell culture media or were treated with increasing concentration of PAN for 48 h at 37° C. Subsequently, the cells were fixed with paraformaldehyde and the filamentous actin (F-actin) fibers stained using Alexa Fluor 594-labeled phalloidin. Cells were imaged using PerkinElmer OPERA High-content screening microscope and the images were analyzed using PerkinElmer Columbus analysis system to count F-actin fibers per cell in each well of the multiwell plate. FIGS. 4A and 4B show representative images of untreated (A) and PAN-treated (B) podocytes. […] These two parameters also gave a reproducible IC50 value for PAN as an in vitro podocyte damaging agent. Each data point represents average F-actin fiber count per cell (from approximately 500-2000 cells/well) from a single well.
FIG. 5. […] Cells were imaged using PerkinElmer OPERA High-content screening microscope and the images were analyzed using PerkinElmer Columbus analysis system to count F-actin fibers per cell in each well of the multiwell plate. […]

cultured podocytes [2] = experiment: High-content focal adhesion assay in cultured differentiated podocytes (anti-paxillin stain); type: cell-based, murine; details: 48 h at 37° C., 96-well plates
Experimental: as §1, with “FIG. 6. […]” for “A dose-response curve showing the effects of increasing concentration of podocyte injuring drug puromycin aminonucleoside (PAN) on various cellular parameters, including the intensity and the number of actin fibers, in cultured podocytes.”, “focal adhesions were” for “filamentous actin (F-actin) fibers”, “an anti-paxillin antibody.” for “Alexa Fluor 594-labeled phalloidin.”, “6A” for “4A”, “6B” for “4B”, “average” for “average F-actin fiber”
FIG. 7. Focal adhesion protection with Mizouribine. […] Cells were imaged using PerkinElmer OPERA High-content screening microscope and the images were analyzed using PerkinElmer Columbus analysis system to count F-actin fibers per cell in each well of the multiwell plate. […] The method allowed quantitative assessment of podocyte protection in a dose-response fashion using these parameters based on the podocyte focal adhesions when treated with the compounds PAN and mizouribine. […]

[3] = co-treatment with PAN and increasing concentration of mizouribine
[4] = increasing concentration of PAN

Row | SMILES | protection of podocyte actin fibers from PAN damage (cultured podocytes [1]; [3]) | protection of podocyte focal adhesions from PAN damage (cultured podocytes [2]; [3]) | effect on intensity and number of actin fibers (relative spot to background intensity; whole cell fibers - number of objects) (cultured podocytes [1]; [4]) | effect on number and intensity of focal adhesions (relative spot to background intensity; FA - number of objects) (cultured podocytes [2]; [4])
1 | NC(=O)c1ncn([C@@H]2O[C@H](CO)[C@@H](O)[C@H]2O)c1O [Mizouribine, mizouribine] | dose-dependently prevents podocyte damage | protects the focal adhesions from PAN damage | – | –
2 | CN(C)c1ncnc2c1ncn2[C@@H]1O[C@H](CO)[C@@H](N)[C@H]1O [PAN, puromycin aminonucleoside] | – | – | podocyte damage in a dose-response fashion | leads to reduced focal adhesions
